The test deals with HIV-1 (RF). As to the kind of experiment: HIV RNA assay: microplate based compound evaluation in HIV-1 infected MT-2 cells. To be noted: Human immunodeficiency virus 1, MT2, 72 h; HIV-1 (RF) infected MT-2 cells, 3 days of culture; virus dilution selected to give this value (inoculum standardisation); read-out: IC90 value (concentration of compound required to reduce the HIV RNA level by 90%). Format: cell-based. How it is done:
MT-2 and MT-4 cells were maintained in RPMI 1640 supplemented with 5% fetal calf serum (FCS) for MT-2 cells or 10% FCS for MT-4 cells, 2 mM L-glutamine and 50 μg/mL gentamycin, all from Gibco. HIV-1 RF was propagated in MT-4 cells in the same medium. Virus stocks were prepared approximately 10 days after acute infection of MT-4 cells and stored as aliquots at −70° C. Infectious titers of HIV-1 (RF) stocks were 1-3×10^7 PFU (plaque forming units)/mL as measured by plaque assay on MT-2 cells (see below). Each aliquot of virus stock used for infection was thawed only once.
For evaluation of antiviral efficacy, cells to be infected were subcultured one day prior to infection. […]
Cell lysates or purified RNA in 3 M or 5 M GED were mixed with 5 M GED and capture probe to a final guanidinium isothiocyanate concentration of 3 M and a final biotin oligonucleotide concentration of 30 nM. […] Immobilized alkaline phosphatase activity was detected by addition of 100 μL of 0.2 mM 4-methylumbelliferyl phosphate (MUBP, JBL Scientific) in buffer δ(2.5 M diethanolamine pH 8.9 (JBL Scientific), 10 mM MgCl2, 5 mM zinc acetate dihydrate and 5 mM N-hydroxyethyl-ethylene-diamine-triacetic acid). […] Fluorescence at […] was measured using a microplate fluorometer (Dynateck) exciting at […]. […]

Converted amounts (≈) assume the structure as drawn.

As to `Nc1ccn([C@H]2CC[C@@H](CO)O2)c(=O)n1` [ddC, 2′,3′-dideoxycytidine], the IC90 is 0.2 µg/mL (≈ 0.947 µM).

The values above are taken from patent US6946469B2, “Cyanamide, alkoxyamino, and urea derivatives of 4,4-disubstituted-3,4-dihydro-2(1H)-quinazolinones as HIV reverse transcriptase inhibitors” (Bristol-Myers Squibb Pharma Company, priority 2001, dated 2005).
